Here are results for one compound from US7304057B2, “Substituted 6-membered N-heterocyclic compounds and method for their use as neurological regulator” (Institute of Pharmacology and Toxicology Accademy of …, priority 2001, dated 2007).

The structures appear in SMILES notation.

Assay [1] has as its system chick embryos dorsal root ganglia. In words: chick embryo dorsal root ganglion cultures free of serum, neurite process scoring. It counts as cell-based. Conditions: 48 h; for Average scoring: score 0-3 of neurite processes, average of 20 ganglia, NGF-only control 1.0. On the procedure: The neurotrophic activity of compounds of the present invention can be determined through several biological models in vitro, e.g. the model of chick embryos dorsal root ganglion cultures free of serum in vitro.
In a sterile environment, dorsal root ganglia were dissected from chick embryos of 8 days gestation and inoculated in rat rail collagen coated culture bottles (5 to 6 dorsal root ganglia per bottle, and two bottles per dosage). After 1 hour of attachment in a 37° C., 5% CO2 incubator, NGF (0.30 ng/ml) containing culture medium free of serum (DMEM) and the compound of example 4 of the present invention were added. The control groups were treated only with the same amount of NGF and culture medium. […] The representative micrographic pictures showing that compound of example 4 promotes the growth of chick embryos dorsal root ganglia processes were give in FIG. 1. The results of illustrative compound of example 4 at different concentrations promoting the growth of chick embryos dorsal root ganglia processes were outlined in table 1, wherein the scoring is the average scoring of 20 ganglia.

Assay [2] deals with mice sympathetic nerve endings damaged by 6-hydroxy-dopamine (6-OHDA). In words: adult mice sympathetic nerve endings damaged by 6-OHDA, residual noradrenaline in submaxillary glands. The assay is classed as in vivo. To be noted: 5 mg/kg sc, 6-OHDA 8 mg/kg ip, Kunming female mice; FIG. 3, **P<0.01 vs model control group. On the procedure:
The neurotrophic activity of the compounds of the present invention can also be determined in several animal pharmacological models in vivo, such as the model of adult mice sympathetic nerve endings damaged by 6-hydroxy-dopamine (6-OHDA).
Kunming species female mice (♀) having a body weight of 18-22 g are randomly divided into the following groups: normal control group, model control group, FK506 (2 mg/kg) group, and the group of compound of the present invention (5 mg/kg) (10 mice per group). The mice are administrated with 6-OHDA (8 mg/kg) by intraperitoneal injection (ip) before 4 hours and after 4 continuous days of subcutaneous injection (sc) of the compound, while the control groups are administrated with the equivalent quantity of carrier by subcutaneous injection. After two weeks of the last administration, the mice are killed by luxation, and the two submaxillary glands of each of the mice are rapidly excised and weighed, placed in a glass grinder, then is homogenated with a homogenating liquid containing internal-standard, and centrifuged at 2000 g for 30 minutes. 20 μL of the obtained supernatant is directly injected in an HPLC-electrochemical detector to measure the content of noradrenaline (NE) in the submaxillary glands of the mice.

As for `CCOC(=O)C(CC(C)C)NC(=O)[C@@H]1CSCCN1S(=O)(=O)c1ccc(C)cc1` (stereo partly drawn) [Example 4, 2-{[(3R)-4-(4-toluenesulfonyl)thiomorpholine-3-carbonyl]amino}-4-methyl-pentanoic acid ethyl ester], the Average scoring in assay [1] (0.1 pM compound + NGF (0.3 ng/mL)) was found to be 2.15; in assay [1] (1.0 pM compound + NGF (0.3 ng/mL)) it was 2.16; in assay [1] (10 pM compound + NGF (0.30 ng/mL)), 1.50. For the same compound, the “growth of chick embryos dorsal root ganglia processes” value in assay [1] (concentration of from 0.1 to 1.0 pmol/L, with NGF (0.30 ng/ml)) is reported as “promote the growth of chick embryos dorsal root ganglia processes”. Further, the “residual NE level in the submaxillary glands” value in assay [2] is given as “raise the residual NE level in the submaxillary glands of the mice”.
